Test results published in article PMC4101055 (Antiviral research, 2014).
“Also recorded” adds a separate entry of the source.

Assays:
genotype C HBV RNaseH = genotype C HBV RNaseH (Hepatitis B virus, UniProt P12933); assay: Oligonucleotide-directed RNA cleavage assay, HBV genotype C RNaseH; format: biochemical; details: read-out: Genotype C IC50; average ± SD, three or four independent assays
E. coli RNaseH = E. coli RNaseH (Escherichia coli, UniProt P0A7Y4); assay: Oligonucleotide-directed cleavage assay with E. coli RNaseH; format: biochemical; details: identical conditions to the HBV RNaseH assay
[1] = system: HBV genotype D replication in HepDES19 cells; assay: HBV replication assay in HepDES19 cells; format: cell-based, Hepatitis B virus; details: same samples as the EC50 assay
[2] = biological target: recombinant genotype D HBV RNaseH (Hepatitis B virus genotype D subtype ayw, UniProt P03156); assay: Oligonucleotide-directed RNA cleavage assay, HBV genotype D RNaseH; format: biochemical; details: for activity against the HBV RNaseH (in words): genotype D and C enzymes, up to 60 µM
HepDES19 cells = assay: MTT cytotoxicity assay; format: cell-based, human; details: read-out: Cytotoxicity CC50, MTT, 3 days treatment
HBV replication = details: read-out: EC50 against HBV replication; ref Hu et al., 2013; cited from earlier work
HIV RNaseH = details: read-out: IC50 against the HIV RNaseH; ref Billamboz et al., 2011b; cited from earlier work

recombinant genotype D HBV RNaseH, sequence (P03156 671-832): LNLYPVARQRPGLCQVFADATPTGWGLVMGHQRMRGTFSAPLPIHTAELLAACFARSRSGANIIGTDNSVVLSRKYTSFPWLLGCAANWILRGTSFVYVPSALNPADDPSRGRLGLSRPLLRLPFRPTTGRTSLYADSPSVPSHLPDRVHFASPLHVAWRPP
E. coli RNaseH, sequence (P0A7Y4 whole entry): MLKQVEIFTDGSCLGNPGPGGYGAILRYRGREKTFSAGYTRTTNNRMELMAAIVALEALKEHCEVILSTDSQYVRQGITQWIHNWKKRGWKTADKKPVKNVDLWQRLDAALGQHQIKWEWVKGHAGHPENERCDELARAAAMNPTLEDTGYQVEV
genotype C HBV RNaseH, sequence (P12933 682-843): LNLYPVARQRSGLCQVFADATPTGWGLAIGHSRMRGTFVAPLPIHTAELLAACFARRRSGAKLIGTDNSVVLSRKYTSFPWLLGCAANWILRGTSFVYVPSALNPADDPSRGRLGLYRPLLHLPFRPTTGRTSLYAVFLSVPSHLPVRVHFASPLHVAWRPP

**Q.** Which IC50 (genotype C HBV RNaseH) does the source give for `O=C1Cc2ccccc2C(=O)N1O` [Compound 1, 2-hydroxyisoquinoline-1,3(2H,4H)-dione] here?
**A.** 30.4 ± 12.9 µM

**Q.** And the “Effect on E. coli RNaseH activity” value (E. coli RNaseH)?
**A.** not affected; also recorded: inactive

**Q.** What about the “Accumulation of minus-polarity HBV DNA strand” value [1] of the same compound?
**A.** not suppressed

**Q.** And the IC50 [2]?
**A.** 28.1 ± 9.7 µM

**Q.** What about the CC50 (HepDES19 cells) of the same compound?
**A.** 74.7 ± 24 µM

**Q.** For `CC(C)c1ccc(O)c(=O)c(O)c1` [Compound 46, β-thujaplicinol], which EC50 (HBV replication) is on record?
**A.** ~5 µM

**Q.** Which “activity against the HBV RNaseH (in words)” value (“activity … (in words)” below) [2] does the source give for `COC(=O)C1C(=O)N(O)C(=O)c2ccccc21` (stereo not shown) [Compound 81, 2-hydroxy-4-methoxycarbonylisoquinoline-1,3(2H,4H)-dione] here?
**A.** negligible activity

**Q.** What about the IC50 (HIV RNaseH) of the same compound?
**A.** 0.061 µM

**Q.** Which “activity … (in words)” value [2] does the source give for `O=C1c2ccccc2C(=O)N1O` [Compound 138] here?
**A.** inactivity

**Q.** Which “activity … (in words)” value [2] does the source give for `O=C1CCC(=O)N1O` [Compound 139] here?
**A.** inactivity
